The results in this text go back to US9353079B2, “Solid forms of an alpha, omega di-substituted dihydroxy cyclopentyl compound and methods for the preparation and use thereof” (Allergan, Inc., priority 2013, dated 2016).

The data set can be described thus: Solid-state stability of crystalline forms on storage, XRPD compared before and after. The data set is classed as physicochemical. The procedure: X-Ray powder diffraction patterns (XRPD) were obtained for the crystalline form described herein under the following conditions: • Equipment: Rigaku Smart-Lab • Scan range: 2 to 40° (2θ) • Scan speed: 3° (2θ) per minute • Step width: 0.02° (2θ) • X-ray information: Cu Kα, λ=1.54 Å, 40 kV/44 mA
Approximately 5-10 mg of the sample was gently applied on a low background Si holder and subjected to XRPD scanning.
In addition, another sample of 5-10 milligrams of crystalline Form A was maintained at a temperature of 22±2° C. and relative humidity of 59% for 144 hours.
A sample of 5-10 milligrams of crystalline Form B was maintained at a temperature of 22±2° C. and relative humidity of 59% for 120 hours.
In addition, another sample of 10-50 grams of crystalline Form B was maintained at a temperature of 22±2° C. and relative humidity of 0% for 120 hours.
In addition, a similar sample of crystalline Form B was maintained at a temperature of 40° C. for 16 hours.

For the molecule `NC(=O)CCC/C=C\C[C@@H]1[C@@H](/C=C/[C@@H](O)CCc2cc(Cl)sc2Cl)[C@H](O)C[C@@H]1O` [Form A, 7-[3α,5α-dihydroxy-2-(3α-hydroxy-5-(3-(2,5-dichloro)thienyl)-1E-pentenyl)cyclopentyl]-5Z-heptenamide], the “change of XRPD pattern / crystal form after storage” value reads like this: (22±2° C., relative humidity 0%, 144 hours) “remained substantially unchanged”; (22±2° C., relative humidity 59%, 144 hours) “a substantial portion of crystalline Form A had converted to crystalline Form B”; (40° C., 25 minutes) “lack of significant change”.
Regarding `NC(=O)CCC/C=C\C[C@@H]1[C@@H](/C=C/[C@@H](O)CCc2cc(Cl)sc2Cl)[C@H](O)C[C@@H]1O` [Form B, 7-[3α,5α-dihydroxy-2-(3α-hydroxy-5-(3-(2,5-dichloro)thienyl)-1E-pentenyl)cyclopentyl]-5Z-heptenamide], the “change of XRPD pattern / crystal form after storage” value is, setting by setting: (22±2° C., relative humidity 0%, 120 hours) “poorly-crystalline mixture of Forms A and B”; (22±2° C., relative humidity 59%, 120 hours) “remained substantially unchanged”; (40° C., 16 hours) “a substantial portion of crystalline Form B had converted to the amorphous form”.
